# According to ChEMBL document CHEMBL2157977, “The antitumor agent doxorubicin binds to Fanconi anemia group F protein” (Bioorg Med Chem, 2012):
# Calls of active or inactive are those of the source. The rule behind the calls is not given here.
# Assays:
# [1] = target: Fanconi anemia group D2 protein (Homo sapiens) (UniProt Q9BXW9); experiment: Inhibition of CDDP-induced FANCD2 monoubiquitination in human HeLa cells at 9 uM after 18 hrs by Western blot analysis; type: cell-based
# [2] = target: T1, Fanconi anemia group F protein (Homo sapiens) (UniProt Q9NPI8); experiment: Binding affinity to human thymus flag-tagged full-length FANCF expressed in HEK293T cells after 10 mins by pull-down assay; type: cell-based; details: HEK-293T
# T1 sequence (whole entry): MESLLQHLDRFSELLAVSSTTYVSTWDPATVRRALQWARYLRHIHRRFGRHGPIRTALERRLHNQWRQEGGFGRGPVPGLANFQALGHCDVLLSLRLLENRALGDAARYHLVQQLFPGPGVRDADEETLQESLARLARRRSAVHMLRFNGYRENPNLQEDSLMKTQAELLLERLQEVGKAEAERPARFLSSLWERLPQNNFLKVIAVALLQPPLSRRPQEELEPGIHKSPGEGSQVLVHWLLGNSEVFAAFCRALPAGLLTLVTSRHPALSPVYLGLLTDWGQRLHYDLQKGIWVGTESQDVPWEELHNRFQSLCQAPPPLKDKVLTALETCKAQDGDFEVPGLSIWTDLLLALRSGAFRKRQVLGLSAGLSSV
# Fanconi anemia group D2 protein (Homo sapiens), sequence (Q9BXW9 whole entry): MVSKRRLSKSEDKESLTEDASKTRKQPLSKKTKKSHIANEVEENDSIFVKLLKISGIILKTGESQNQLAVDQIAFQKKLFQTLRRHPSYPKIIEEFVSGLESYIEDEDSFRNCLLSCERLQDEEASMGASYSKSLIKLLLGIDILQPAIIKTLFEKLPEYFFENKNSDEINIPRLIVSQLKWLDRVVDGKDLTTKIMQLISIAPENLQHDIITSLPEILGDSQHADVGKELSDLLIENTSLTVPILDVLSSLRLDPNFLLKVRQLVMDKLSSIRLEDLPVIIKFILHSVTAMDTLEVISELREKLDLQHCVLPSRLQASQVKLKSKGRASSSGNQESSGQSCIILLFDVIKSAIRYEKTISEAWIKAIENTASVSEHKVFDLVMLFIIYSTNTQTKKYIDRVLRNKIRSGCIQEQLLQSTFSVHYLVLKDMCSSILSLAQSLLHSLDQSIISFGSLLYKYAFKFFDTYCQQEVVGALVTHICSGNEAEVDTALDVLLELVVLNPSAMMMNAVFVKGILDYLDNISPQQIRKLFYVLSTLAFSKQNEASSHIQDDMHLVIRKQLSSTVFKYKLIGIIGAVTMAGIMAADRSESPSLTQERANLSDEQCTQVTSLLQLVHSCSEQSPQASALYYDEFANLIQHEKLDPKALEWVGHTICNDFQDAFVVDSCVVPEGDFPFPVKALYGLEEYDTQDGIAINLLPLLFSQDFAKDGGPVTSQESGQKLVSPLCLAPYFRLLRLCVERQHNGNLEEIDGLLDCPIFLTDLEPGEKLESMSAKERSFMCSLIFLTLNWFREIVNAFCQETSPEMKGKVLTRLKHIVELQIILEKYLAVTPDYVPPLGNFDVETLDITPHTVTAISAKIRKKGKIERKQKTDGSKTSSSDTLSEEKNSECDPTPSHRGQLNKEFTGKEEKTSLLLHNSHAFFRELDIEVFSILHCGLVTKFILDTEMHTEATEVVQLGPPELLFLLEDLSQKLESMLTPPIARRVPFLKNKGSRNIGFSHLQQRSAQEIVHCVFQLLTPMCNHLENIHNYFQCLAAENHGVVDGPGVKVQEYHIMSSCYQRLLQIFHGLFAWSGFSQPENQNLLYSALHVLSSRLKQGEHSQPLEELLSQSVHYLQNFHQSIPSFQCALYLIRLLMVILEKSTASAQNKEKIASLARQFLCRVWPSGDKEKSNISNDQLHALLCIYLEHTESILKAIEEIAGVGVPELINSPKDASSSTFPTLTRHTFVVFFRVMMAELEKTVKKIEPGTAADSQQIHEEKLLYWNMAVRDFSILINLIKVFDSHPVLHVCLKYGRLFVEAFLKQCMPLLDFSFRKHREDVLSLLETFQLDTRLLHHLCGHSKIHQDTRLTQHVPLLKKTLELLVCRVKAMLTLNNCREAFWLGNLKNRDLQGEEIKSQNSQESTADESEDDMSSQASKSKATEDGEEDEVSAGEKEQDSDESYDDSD
inhibition [1],Activity [2],SMILES
Active,–,COc1cccc2c1C(=O)c1c(O)c3c(c(O)c1C2=O)C[C@@](O)(C(=O)CO)C[C@@H]3O[C@H]1C[C@H](N)[C@H](O)[C@H](C)O1
–,Active,COc1cccc2c1C(=O)c1c(O)c3c(c(O)c1C2=O)C[C@@](O)(C(=O)CO)C[C@@H]3O[C@H]1C[C@H](NC(=O)CCCCCNC(=O)CCCC[C@@H]2SC[C@@H]3NC(=O)N[C@@H]32)[C@H](O)[C@H](C)O1
